pKd: −log10 of the molar value. Peptide text beside a SMILES is read from it.
Columns and labels:
[1] = tested on: mAb41; experiment: Competitive ELISA for binding of mAb41 to immobilized peptide B; design: species or system mice; conditions: 1 μg biotinylated pB immobilized, 12 ng mAb41, competitor peptide 0 to 0.8 μg
Description: Streptavidin coated 96-well ELISA plates were coated with 1 μg/well biotinylated peptide B as previously described ([Major et al., 1999]). Equal amounts of mAb (12 ng in 100 μl PBS containing 5% milk) were added to each well with increasing amounts of competitor peptide (from 0 to 0.8 μg). After 1 hr incubation at room temperature and washing, secondary antibody was added. The substrate reaction and absorbance reading were performed as described above.

[2] = tested on: mAb41 Fab; experiment: Affinity measurements by Octet (binding kinetics of mAb41 Fab to biotinylated peptides); design: species or system mice; conditions: Octet RED, 1:1 model fit
Description: Binding kinetics of mAb41 Fab to selected peptides were measured using a Fortebio Octet Red 96 instrument (Menlo Park, CA). All assays were performed in 1 × kinetic buffer (Fortebio). Biotinylated peptides were loaded onto streptavidin biosensors (Fortebio) for 100 s and quenched with biocytin. A two-fold dilution series of antibody Fab (prepared using a mouse IgG1 kit, Pierce) was used as analyte. Association was performed for 300 s and dissociation for 900 s. Binding constants were obtained by fitting sensorgrams with a 1:1 model using ForteBio Data Analysis Software.

SMILES: CSCC[C@H](NC(=O)[C@@H](N)CCSC)C(=O)N[C@@H](CCC(=O)O)C(=O)N[C@@H](CS)C(=O)N[C@@H](CCC(=O)O)C(=O)N[C@@H](CCCCN)C(=O)NCC(=O)N[C@@H](CCCCN)C(=O)N[C@@H](Cc1ccc(O)cc1)C(=O)N[C@H](C(=O)N[C@@H](CCC(N)=O)C(=O)NCC(=O)N[C@@H](Cc1c[nH]c2ccccc12)C(=O)N[C@@H](CC(C)C)C(=O)N[C@@H](CS)C(=O)N[C@@H](Cc1c[nH]cn1)C(=O)N[C@@H](CC(C)C)C(=O)N[C@@H](Cc1ccccc1)C(=O)N[C@@H](Cc1c[nH]c2ccccc12)C(=O)N[C@@H](CCC(=O)O)C(=O)N[C@@H](CC(=O)O)C(=O)N[C@@H](CS)C(=O)N[C@@H](CCC(N)=O)C(=O)N[C@@H](CC(=O)O)C(=O)N[C@@H](CCCNC(=N)N)C(=O)NCC(=O)N[C@@H](Cc1c[nH]c2ccccc12)C(=O)N[C@@H](CC(C)C)C(=O)N[C@@H](CCC(=O)O)C(=O)N[C@@H](CCC(N)=O)C(=O)N[C@@H](CC(C)C)C(=O)N[C@@H](CCCNC(=N)N)C(=O)N[C@@H](CC(N)=O)C(=O)N[C@@H](CO)C(=O)N[C@@H](CS)C(=O)N[C@@H](C)C(=O)O)C(C)C [p41_1] (H-MMECEKGKYVQGWLCHLFWEDCQDRGWLEQLRNSCA-OH; N-terminus and C-terminus assumed)
- competition with wild type pB for binding to mAb41 [1]: inhibited binding of mAb41 to immobilized pB
- kon ([2]; association 300 s): 14400 M⁻¹ s⁻¹
- pKd ([2]; biotinylated peptide on streptavidin biosensor, mAb41 Fab 125 nM to 7.8 nM 2-fold series): 7.78
- kdis ([2]; dissociation 900 s): 0.000241 s⁻¹

Source: article PMC4563141, “Reverse Engineering of Vaccine Antigens Using High Throughput Sequencing-enhanced mRNA Display” (EBioMedicine, 2015)
